Columns and labels:
human m1 receptor = target: T1, human m1 receptor (Homo sapiens, UniProt P11229); assay: m1 primary assay: arachidonic acid release in CHO-m1 cells; type: cell-based
T1 construct: expressed in transfected cells; host or cells: CHO (Chinese hamster) cells
T1 sequence (P11229 1-460): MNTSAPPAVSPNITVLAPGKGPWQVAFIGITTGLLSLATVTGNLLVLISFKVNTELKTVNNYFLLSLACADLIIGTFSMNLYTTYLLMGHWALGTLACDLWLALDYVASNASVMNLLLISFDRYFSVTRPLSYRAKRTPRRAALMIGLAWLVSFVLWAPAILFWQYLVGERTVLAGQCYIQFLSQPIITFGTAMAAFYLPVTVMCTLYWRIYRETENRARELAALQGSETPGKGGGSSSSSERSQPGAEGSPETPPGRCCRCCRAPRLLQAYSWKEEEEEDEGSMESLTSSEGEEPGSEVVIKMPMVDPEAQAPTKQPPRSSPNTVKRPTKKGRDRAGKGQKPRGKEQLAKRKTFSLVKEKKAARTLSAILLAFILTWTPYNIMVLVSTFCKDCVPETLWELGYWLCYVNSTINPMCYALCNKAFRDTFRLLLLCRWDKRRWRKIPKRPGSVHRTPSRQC
Experimental: CHO (Chinese hamster transfected with the human m1 receptor (CHO-m1) were grown to confluency in flasks using Dulbecco's Modified Eagle Medium (DMEM) containing 10% fetal bovine serum. Cells were detached with 0.05% trypsin, 0.53 mM EDTA. Cells were collected after centrifugation in a Beckman centrifuge at 1000 rpm for 10 minutes, diluted with culture medium (400,000 cells/ml) Aarachidonic acid was added to the cell solution at a 1:2000 ratio of a 1 mCi/ml stock and cells were plated at 40,000 cells per well into 96 well plates and incubated for 18 to 24 hours at 37 C and 5% CO2. Following the incubation, the medium was removed and the cells were washed with D-ME medium containing 2 mg/mL of fatty acid free BSA (250 L/well). The test compound of interest was diluted in D-ME-BSA and added to each well (150 L/well), incubated for 120 minutes at 37 C in 5% CO2. 80 µL of supernatant was transferred to Wallac 96 well plates containing 110 µL/well of Supermax scintillation cocktail at pH 9.0. Plates were counted in a Wallae microbeta counter.
Representative results from the m1 primary assay are as follows: […]

A9L-m1 = target: T2, A9L-m1 (Homo sapiens, UniProt P11229); assay: m1 secondary assay: PI stimulation in A9L-m1; type: cell-based; settings: for Emax: A9L-m1, relative to carbachol, read-out: Pl stim. A9L-m1 % Max of carbachol; for EC50: A9L-m1, read-out: ED-50 Pl stim A9L-m1, nm
T2 sequence (P11229 1-460): T1 sequence (P11229 1-460)

For `CN(C)/C=N/c1ccc2c(c1)[C@@H](NC(=O)c1ccc(Cl)cc1)[C@H](O)C2` [Compound 118], the “Max. % activity @ 5 μM” value (human m1 receptor) was 57.4%.

For `CN(C)/C=N/c1ccc2c(c1)C(NC(=O)c1cccc(C(F)(F)F)c1)C(O)C2.Cl` (centres unmarked) [Compound 126], the “Max. % activity @ 5 μM” value (human m1 receptor) was 102.2%.

With `O=C(NC1c2cc(/N=C/N3CCCC3)ccc2C[C@H]1O)c1ccc(-c2ccccc2)cc1` (some centres unmarked) [Compound 134] the “Max. % activity @ 5 μM” value (human m1 receptor) was 75.9%.

In the case of `O=C(N[C@@H]1c2cc(/N=C/N3CCOCC3)ccc2C[C@H]1O)c1ccc(-c2ccccc2)cc1` [Compound 119], the “Max. % activity @ 5 μM” value (human m1 receptor) is reported as 66.4%.

`Cc1ccc(C(=O)NC2c3cc(/N=C/N4CCCC4)ccc3C[C@@H]2O)cc1Br` (some centres unmarked) [Compound 132] showed an Emax (A9L-m1) of 59% and an EC50 (A9L-m1) of 0.183 µM.

In the case of `CN(C)/C=N/c1ccc2c(c1)C(NC(=O)c1ccc(Cl)c(Cl)c1)C(O)C2.Cl` (centres unmarked) [Compound 127], the “Max. % activity @ 5 μM” value (human m1 receptor) is reported as 69.8%.

`CN1CCC/C1=N\c1ccc2c(c1)C(NC(=O)c1ccc(-c3ccccc3)cc1)[C@H](O)C2` (some centres unmarked) [Compound 125] was tested, and the “Max. % activity @ 5 μM” value (human m1 receptor) was 114.0%.

For `O=C(NC1c2cc(/N=C/N3CCCC3)ccc2C[C@H]1O)c1ccc(Cl)cc1` (some centres unmarked) [Compound 122], the “Max. % activity @ 5 μM” value (human m1 receptor) was 80.9%.

With `O=C(NC1c2cc(/N=C/N3CCCC3)ccc2CC1O)c1cccc(C(F)(F)F)c1` (centres unmarked) [Compound 123] the “Max. % activity @ 5 μM” value (human m1 receptor) was 76.7%.

With `C/C(=N\c1ccc2c(c1)C(NC(=O)c1cccc(C(F)(F)F)c1)C(O)C2)N(C)C` (centres unmarked) [Compound 124] the “Max. % activity @ 5 μM” value (human m1 receptor) was 82.2%.

Work on `Cc1ccc(C(=O)NC2c3cc(/N=C/N4CCCC4)ccc3C[C@@H]2O)cc1I` (some centres unmarked) [Compound 130] yielded an Emax (A9L-m1) of 64% and an EC50 (A9L-m1) of 0.0092 µM.

In the case of `O=C(N[C@@H]1c2cc(/N=C/N3CCCC3)ccc2C[C@H]1O)c1ccc(Cl)c(Cl)c1` [Compound 121], the “Max. % activity @ 5 μM” value (human m1 receptor) is reported as 45.4%.

`O=C(N[C@@H]1c2cc(/N=C/N3CCCC3)ccc2C[C@H]1O)c1ccc(-c2ccccc2)cc1` [Compound 120] was tested, and the “Max. % activity @ 5 μM” value (human m1 receptor) was 92.5%.

Work on `C/C(=N\c1ccc2c(c1)C(NC(=O)c1ccc(Cl)c(Cl)c1)C(O)C2)N(C)C` (centres unmarked) [Compound 128] yielded an Emax (A9L-m1) of 59.2% and an EC50 (A9L-m1) of 0.0953 µM.
